Test results from US7045339B2, “Electron donors for chlorinated solvent source area bioremediation” (SRP Technologies, Inc., priority 2002, dated 2006).
Each block holds one molecule with its values, some of them ahead of it.

Legend:
Type in all cases: physicochemical
[1] = Surface tension of electron donor solutions (pendant drop method); details: FIG. 5; for Change in surface tension: 0% ethyl lactate
Text: Based on the field results presented in Example 1, laboratory studies were preformed to confirm that the enhanced bioavailability of TCE observed in the field was due to co-solvent or surfactant behavior resulting from the use of high concentrations of sodium lactate. Two fundamental properties used to screen the co-solvent or surfactant properties of a solution are surface tension and interfacial tension. Surface tension measures the force per unit length along the interface between a liquid and air due to its tension. When a co-solvent or surfactant is present in an aqueous liquid at increasing concentrations, the surface tension of that liquid decreases. Interfacial tension is similar to surface tension except that it measures the force per unit length along the interface between two liquid phases arising from the surface free energy. The higher the interfacial tension between two liquids, the less likely one is to dissolve into the other, and the more difficult it is for one to be transported within the other. […]
The laboratory study performed to confirm the co-solvent properties of the high concentration electron donor solution measured the surface tension of electron donor solutions at various concentrations. Next, interfacial tensions between the same electron donor solutions and nonaqueous phase TCE were measured. […] Surface and interfacial tension measurements were made using the pendant drop method (M. J. Rosen, ed., Structure/Performance Relationships in Surfactants, American Chemical Society, Washington D.C. 329 (1984); R. D. Bagnall & P. A. Arundel, The Profile Area of Pendant Drops, 82 J. Phys. Chem. 898 (1978)) coupled with real-time video imaging (M. D. Herd et al., Interfacial Tensions of Microbial Surfactants Determined by Real-Time Video Imaging of Pendant Drops, Proceedings paper number SPE/DOE 24206 513–519, SPE/DOE Eighth Symposium on Enhanced Oil Recovery, Tulsa, Okla. (1992)).

[2] = Interfacial tension between electron donor solutions and nonaqueous phase TCE (pendant drop method)
Text: Based on the field results presented in Example 1, laboratory studies were preformed to confirm that the enhanced bioavailability of TCE observed in the field was due to co-solvent or surfactant behavior resulting from the use of high concentrations of sodium lactate. Two fundamental properties used to screen the co-solvent or surfactant properties of a solution are surface tension and interfacial tension. Surface tension measures the force per unit length along the interface between a liquid and air due to its tension. When a co-solvent or surfactant is present in an aqueous liquid at increasing concentrations, the surface tension of that liquid decreases. Interfacial tension is similar to surface tension except that it measures the force per unit length along the interface between two liquid phases arising from the surface free energy. The higher the interfacial tension between two liquids, the less likely one is to dissolve into the other, and the more difficult it is for one to be transported within the other. Thus, perhaps the most significant property of co-solvents and surfactants in the context of chlorinated solvent remediation is that they decrease the interfacial tension between the aqueous phase (groundwater) and the organic nonaqueous phase so that the solubility (or mobility for order-of-magnitude decreases) of the nonaqueous phase is enhanced.
The laboratory study performed to confirm the co-solvent properties of the high concentration electron donor solution measured the surface tension of electron donor solutions at various concentrations. Next, interfacial tensions between the same electron donor solutions and nonaqueous phase TCE were measured. Two types of electron donor solutions were used. The first was different concentrations of sodium lactate, the electron donor used in Example 1. The second was various mixtures of sodium lactate and ethyl lactate. Ethyl lactate was chosen because it is a lactate-based compound that is used in some industries as a solvent. Thus it was believed ethyl lactate might further enhance the co-solvent behavior observed, while still acting as a suitable electron donor for bioremediation. It is believed that mixtures of sodium lactate and ethyl lactate have never before been used for bioremediation. Surface and interfacial tension measurements were made using the pendant drop method (M. J. Rosen, ed., Structure/Performance Relationships in Surfactants, American Chemical Society, Washington D.C. 329 (1984); R. D. Bagnall & P. A. Arundel, The Profile Area of Pendant Drops, 82 J. Phys. Chem. 898 (1978)) coupled with real-time video imaging (M. D. Herd et al., Interfacial Tensions of Microbial Surfactants Determined by Real-Time Video Imaging of Pendant Drops, Proceedings paper number SPE/DOE 24206 513–519, SPE/DOE Eighth Symposium on Enhanced Oil Recovery, Tulsa, Okla. (1992)).
The data points in the figure represent the mean interfacial tension measurement based on at least eight independent measurements. The error bars show one standard deviation. It can be seen that as electron donor concentration increases, interfacial tension generally decreases. While sodium lactate had dramatic effects in the field (see FIG. 7), it appears that the other electron donor solutions tested might increase bioavailability to an even greater extent. […]

[3] = Emulsion formation of electron donor in water; details: very little mixing, unpublished data
Text: Oleyl lactyllic acid may be just such an electron donor (confidential proprietary information). It is essentially a combination of vegetable oil and lactic acid that was developed in the food processing industry a few decades ago as an emulsifier. […] Although it has an appearance and viscosity of vegetable oil, its nature as an emulsifier causes it to react very differently with water than pure vegetable oil. When vegetable oil is used in the field as electron donor, an emulsifier such as lecithin must be added to inject it into groundwater (25). The mixture is then mixed to achieve an emulsion of a few tenths of a percent to a few percent oil. The droplet size of the emulsion may be a critical factor in its transportability (26). In order to achieve small, easily transported droplets in the emulsion, intensive mixing is required. […] This observation is consistent with its intended use in food processing. […] While this may be the most promising example on the surface, other potential electron donors will be evaluated under this proposal.

Effect on the solution's surface tension ([1]; 1% and 10% ethyl lactate added to sodium lactate solutions): pronounced effect
Molecule: CCOC(=O)C(C)O (stereo not drawn) [ethyl lactate]
Tension compared with 30% sodium lactate solution with no ethyl lactate ([2]; 10% ethyl lactate mixture with sodium lactate): lower surface tensions than the 30% sodium lactate solution | Dependence of interfacial tension on sodium lactate concentration ([2]; ethyl lactate / sodium lactate mixtures, FIG. 6): relatively insensitive to sodium lactate concentration

Emulsion formed in water [3]: forms a stable microemulsion
Molecule: oleyl lactyllic acid

Molecule: CC(O)C(=O)[O-].[Na+] (stereo not drawn) [sodium lactate]
Change in surface tension ([1]; sodium lactate 0.01 to 7%): almost no change | Change in surface tension ([1]; sodium lactate 30 and 60%): dramatic decrease | Decrease of interfacial tension between nonaqueous TCE and the electron donor solution ([2]; high concentrations of sodium lactate): ≤ 47% | Interfacial tension as percent of the value at 0.1% sodium lactate ([2]; sodium lactate 30%, 0% ethyl lactate, FIG. 6): 47% | Decrease of interfacial tension ([2]; sodium lactate increased from 0.1 to 3%, 0% ethyl lactate, FIG. 6): about 26%
